Consider 81 molecules from PubChem BioAssay AID1259418 (Broad Institute, 2018).

“And” between values parts separate entries of the source, which are not always exact repeats. Equal values may be shown once. Records with an inconclusive call do not appear. The source made the active and inactive calls.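 The calls were made as follows: active = fitted half-maximal concentration of signal decrease at or below twice the sample's top tested concentration; inconclusive = flat curve between -70 and -30 percent, or poor fit; inactive = flat within 30 percent, signal rise, or potency above limit.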 A value given as a limit tells only on which side of the number the result lay.

This test addresses T. gondii ME49Luc in IFN-y HeLa, luciferase, 72 h. Nature of the test: inhibitors of Toxoplasma growth in IFN-γ-primed HeLa – cell-based, ME49Luc, luciferase, 72 h, dose response (AID 1259418).
For orientation: AC50 means the concentration at which the activity in the assay is half-maximal. Consider `CCOc1ccccc1N(Cc1nc(-c2ccccc2OC)oc1C)S(=O)(=O)c1cccs1`, for which the AC50 was 12.2 µM. The value for `Cc1ccc(-c2nc(CN3CCN(C(=O)NC4CCCC4)CC3)c(C)o2)cc1` was 20.9 µM. The value for `O=C(Cc1ccccn1)N1CC(=O)N2[C@H](CO)[C@H](c3ccc(C#CCC4CCCC4)cc3)[C@H]2C1` was 19.4 µM and 8.78 µM.

Consider `COc1ccccc1C(=O)Nc1ccc(-c2nc(-c3cc(C)ccc3C)co2)cc1`, for which the concentration at half-maximal activity (AC50) was 5.13 µM. Take `O=C(Nc1ccccc1)c1ncn2c1CN(CC1CC1)S(=O)(=O)c1ccccc1-2`: the AC50 was 32.6 µM. Consider `CC(=O)O.CC(=O)O.[Cl][Pt+2][Cl].[NH-]C1CCCCC1.[NH2-]`, for which the AC50 was 25.4 µM. In the case of `CCc1cc(C2CCCN2C(=O)c2cc(C(F)(F)F)nn2C)on1` (stereo unspecified), the AC50 was > 39 µM (inactive). For the molecule `O=C(NCCc1csc(-c2ccccc2)n1)C1CCN(C(=O)c2ccccc2Br)CC1`, the AC50 is 24.6 µM. As for `O=C(CC1Nc2c3ccccc3nc(=S)n2C1=O)NCCN1CCN(c2cccc(Cl)c2)CC1` (stereo unspecified), the AC50 was 37.1 µM. Turning to `Cc1ccc(-c2cc(C(F)(F)F)nn2-c2ccc(S(N)(=O)=O)cc2)cc1`, the AC50 is 22.2 µM. `N#C[C@@H]1[C@H](c2ccc(-c3cccc(F)c3)cc2)[C@@H](CO)N1C(=O)NC1CCCC1`: the AC50 was 20.4 µM. For `Cc1cc(C)c(S(=O)(=O)N2CCC3(CC2)NCCN=C3NC2CCCCC2)cc1C`, the AC50 was 6.34 µM. On to `O=C(Nc1cccnc1)c1cc(-c2cnc(-c3ccccc3)nc2)cn1CC1CC1`, for which the AC50 is 34.2 µM and 26.9 µM. On to `O=C(CCC1N=C2c3ccccc3N=C(SCc3ccc(F)cc3)N2C1=O)NCCc1ccccc1` (stereo unspecified), for which the AC50 is 37.8 µM.

On to `CN1C(=O)c2cc(NC(=O)Cc3cccs3)ccc2OC[C@@H]2O[C@H](CC(=O)N[C@H]3CCN(Cc4ccccc4)C3)CC[C@@H]21`, for which the AC50 was 7.53 µM.

Take `COc1ccc(-c2nc(N(Cc3ccco3)CC3CCCO3)c3ccccc3n2)cc1` (stereo unspecified): the concentration at half-maximal activity (AC50) was 31.8 µM. As to `COc1ccc(-c2nc(C)c(-c3ccc(SCc4cccc(C(F)(F)F)c4)nn3)s2)cc1`, the AC50 was > 39 µM (inactive). For the molecule `C/C=C/c1ccc([C@@H]2[C@@H](CO)N3CCCCN(CCC(F)(F)F)C[C@@H]23)cc1`, the AC50 was 17.4 µM. In the case of `N#C[C@H]1[C@H](c2ccc(-c3cccc(F)c3)cc2)[C@H](CO)N1C(=O)NC1CCCC1`, the AC50 is 18.9 µM. With `CN1c2ccc(-c3ccc(C#N)cc3)cc2[C@@H]2[C@@H](CCN2S(=O)(=O)c2ccc(F)cc2)[C@@H]1CO`, the AC50 is 15.8 µM. In the case of `O=C(Nc1ccccc1)N1CC2CN(Cc3ccc(C(F)(F)F)cc3)C2C1` (stereo unspecified), the AC50 was 36.6 µM.

For `CCCNC(=O)c1cc(-c2ccn(CC3CC3)n2)n2ccccc12`, the AC50 was 26.9 µM. With `O=C(NC1CCCC1)N1CCCCN2[C@H](CO)[C@H](c3ccc(-c4cccnc4)cc3)[C@H]2C1`, the AC50 was 24.1 µM. In the case of `CCc1cnc(N2[C@H](CO)[C@@H](c3ccc(C#Cc4ccccc4F)cc3)[C@@H]2C#N)s1`, the half-maximal activity concentration (AC50) was 21.3 µM. Regarding `CC(C)CC#Cc1ccc([C@H]2[C@@H](CO)N3C(=O)CN(C(=O)c4cccc(F)c4)C[C@H]23)cc1`, the half-maximal activity concentration (AC50) is 15.5 µM.

As to `COc1ccc(CNC(=O)COc2nc(C)nc3ccccc23)cc1`, the AC50 is > 39 µM (inactive). Regarding `O=C(c1ccc(-n2nc(C(F)(F)F)c3c2CCCC3)cc1)N1CCC2(CC1)OCCO2`, the AC50 was 1.4 µM. As to `COc1cc([C@@H]2c3cc4c(cc3C(OC3O[C@@H]5COC(C)O[C@H]5[C@H](O)[C@H]3O)C3COC(=O)[C@@H]32)OCO4)cc(OC)c1O` (stereo partly specified), the AC50 was > 39 µM (inactive). Next, `COCC(=O)N1[C@H](C#N)[C@H](c2ccc(C#CCC3CCCC3)cc2)[C@@H]1CO`: 29.6 µM and 27.8 µM. Consider `CC(C)CC#Cc1ccc([C@@H]2[C@@H](CO)N3CCCCN(C(=O)Nc4ccccc4)C[C@H]23)cc1`, for which the AC50 was 13.5 µM and 9.09 µM. In the case of `COc1ccccc1-c1nc(CN(c2ccccc2OC)S(=O)(=O)c2ccccc2)c(C)o1`, the AC50 was 5.18 µM. With `CCc1nc(OCC(=O)Nc2ccccc2)c2ccccc2n1`, the AC50 was 27.7 µM. With `CCOc1ccc(-c2nc(CN(c3ccccc3C)S(=O)(=O)c3cccs3)c(C)o2)cc1`, the AC50 was 18.8 µM.

Take `CC(C)C#Cc1ccc([C@@H]2[C@@H](CO)N(C(=O)c3cccc(F)c3)[C@H]2C#N)cc1`: the half-maximal activity concentration (AC50) was 14.2 µM and 27.9 µM. On to `COc1ccc(-c2nc(N3CCC(N4CCCCC4)CC3)c3ccccc3n2)cc1`, for which the AC50 is 10.6 µM. Take `Cc1ccc(-c2nc(CN3CCN(C(=O)Nc4ccc(C)c(C)c4)CC3)c(C)o2)cc1`: the AC50 was 23.2 µM. For `CCN1CCCC1CNC(=O)C1CCN(Cc2cc3ccccc3n2Cc2ccc(F)cc2)CC1` (stereo unspecified), the half-maximal activity concentration (AC50) was 21.2 µM. Turning to `Cc1cc(C)c(S(=O)(=O)N2CCC3(CC2)NCCN=C3NCc2cc(F)cc(F)c2)cc1C`, the AC50 is 7.83 µM. Regarding `Cc1cc(C)c(S(=O)(=O)N2CCC(C(=O)NCCc3csc(-c4ccccc4)n3)CC2)cc1C`, the AC50 is 14.7 µM. As to `O=C1CNC[C@@H]2[C@@H](c3ccc(C#Cc4cccnc4)cc3)[C@@H](CO)N12`, the half-maximal activity concentration (AC50) was 14.1 µM and 18.2 µM. In the case of `O=C(Nc1ccc(Cl)cc1)N1[C@@H]2CNC[C@H]1C2c1ccc(-c2ccccc2)cc1` (stereo partly specified), the AC50 is 2.02 µM and 2.94 µM. With `Clc1ccc(-n2ncc3c(NCc4cccc(Cl)c4)ncnc32)cc1`, the concentration at half-maximal activity (AC50) is 16.9 µM. In the case of `Cc1ccc(NC(=O)N2CCN(Cc3nc(-c4cccc(Cl)c4)oc3C)CC2)c(Cl)c1`, the AC50 is 34.2 µM. With `Cc1ccc(CSC2=Nc3ccccc3C3=NC(CC(=O)NCc4ccc5c(c4)OCO5)C(=O)N23)cc1` (stereo unspecified), the AC50 is > 39 µM (inactive). Regarding `O=C(CCC1N=C2c3ccccc3N=C(SCc3cc(=O)n4cc(Cl)ccc4n3)N2C1=O)NC1CCCCC1` (stereo unspecified), the AC50 was > 39 µM (inactive).

For `O=C(CCC1N=C2c3ccccc3N=C(SCc3cc(=O)n4cc(Cl)ccc4n3)N2C1=O)NCc1cccs1` (stereo unspecified), the concentration at half-maximal activity (AC50) is 32 µM. Next, `O=C(CCC1N=C2c3ccccc3N=C(SCc3ccccc3F)N2C1=O)NCc1cccs1` (stereo unspecified): 22.4 µM; `Clc1ccc(-c2nc(NC3CCCC3)c3ccccc3n2)cc1`: 17.6 µM; `O=C(Cc1cccnc1)N1CC(=O)N2[C@@H](CO)[C@H](c3ccc(C4=CCCCC4)cc3)[C@@H]2C1`: > 39 µM (inactive).

Take `COc1cccc(NC(=O)N2CC(=O)N3[C@H](CO)[C@@H](c4ccc(C#CCC5CCCC5)cc4)[C@H]3C2)c1`: the AC50 is > 39 µM (inactive).

As to `COc1ccccc1C(=O)Nc1ccc(-c2nc(-c3ccc(C)cc3C)co2)cc1`, the AC50 was 9.34 µM and 18.2 µM.

In the case of `CC(C)c1cccc(NC(=O)C[C@H]2CC[C@H]3[C@@H](COc4ccc(NS(=O)(=O)c5ccccc5Cl)cc4C(=O)N3C)O2)c1`, the AC50 is 22.6 µM.

With `COc1ccc(-c2nc(NC3CC3)c3ccccc3n2)cc1`, the AC50 was 14.9 µM. As for `Cc1ccc(-c2coc(-c3ccc(NC(=O)c4cccs4)cc3)n2)c(C)c1`, the AC50 was 13.8 µM. As to `O=C(c1ccc(F)cc1)N1CC(=O)N2[C@H](CO)[C@H](c3ccc(C#CCC4CCCC4)cc3)[C@@H]2C1`, the AC50 is 14.4 µM and 12 µM. The value for `O=S(=O)(c1ccccc1)N(CC(F)(F)F)c1ccc(C(O)(C(F)(F)F)C(F)(F)F)cc1` was 19 µM; that for `O=C1c2c(O)ccc(O)c2C(=O)c2c(NCCNCCO)ccc(NCCNCCO)c21` was 0.128 µM; that for `COc1ccc2c(c1)NC1(CCN(C(=O)CCc3cc(OC)c(OC)c(OC)c3)CC1)c1cccn1-2` was > 39 µM (inactive). Next, `COc1ccc(-c2nc(CN(c3ccccc3OC)S(=O)(=O)c3cccs3)c(C)o2)cc1`: 13.7 µM; `CCc1cnc(N2[C@@H](C#N)[C@@H](c3ccc(C4=CCCCC4)cc3)[C@@H]2CO)s1`: > 20 µM (inactive) and 8.88 µM. For `CC(C)(O)CC(=O)NCCn1ccc2ncnc(Nc3ccc(Oc4cccc(C(F)(F)F)c4)c(Cl)c3)c21`, the AC50 is 24.1 µM.

As to `Fc1ccc(CSc2nc(NCc3ccccc3)c3ccccc3n2)cc1`, the AC50 is 17.8 µM. The value for `CCc1c(C)sc2c1CCN(Cc1nc(-c3cccc(OC)c3OC)oc1C)C2c1ccccc1` (stereo unspecified) was 15.7 µM; that for `CCOC(=O)c1nn(Cc2ccccc2)c2c1CN(C(=O)CN1CC(c3ccccc3)CC1=O)CC2` (stereo unspecified) was > 39 µM (inactive); that for `CCCNC(=O)N1[C@H](C#N)[C@H](c2ccc(-c3ccccc3F)cc2)[C@@H]1CO` was 3.6 µM. Regarding `CC(C)Cc1ccc(S(=O)(=O)N2CCC3(CC2)NCCN=C3NCc2ccccc2)cc1`, the AC50 was 14.4 µM. For `O=C(C[C@H]1CC[C@H]2[C@@H](COC[C@H](O)CN2Cc2ccc(Oc3ccccc3)cc2)O1)N1CCN(c2ccccc2)CC1`, the AC50 was 12.1 µM and 21.2 µM.

In the case of `COc1ccc(-c2nc(N(C)Cc3ccco3)c3ccccc3n2)cc1`, the AC50 was 17 µM. Take `C[C@H](CO)N1C[C@H](C)[C@H](CN(C)C(=O)c2cc(Cl)cc(Cl)c2)OCc2ccccc2-c2c(n(C)c3ccccc23)C1=O`: the half-maximal activity concentration (AC50) is 9.22 µM. Next, `CCc1ccc(S(=O)(=O)N2CCC3(CC2)NCCN=C3NC2CCCCCC2)cc1`: 5.05 µM; `COc1ccc(-c2nc(NCCCN3CCCCC3C)c3ccccc3n2)cc1` (stereo unspecified): 13.9 µM; `C[C@@H]1CN([C@@H](C)CO)C(=O)c2cccc(NC(=O)NC3CCCCC3)c2O[C@@H]1CN(C)Cc1ccc(C(F)(F)F)cc1`: 25.7 µM.

`Cc1ccc(-c2nc3c(s2)CN(C(=O)Nc2ccc(C)cc2C)CC3)cc1`: the AC50 is 35 µM. On to `O=C(c1ccco1)N1CCC2(CC1)Nc1ccc(Cl)cc1-n1cccc12`, for which the AC50 is 32.1 µM. The value for `Cc1ccc(S(=O)(=O)N2CSC[C@@H]2C(=O)NCCc2csc(-c3ccccc3)n2)cc1` was 12.9 µM; that for `CCOc1ccc(-c2nc(CN3CCN(C(=O)Nc4ccc(C)cc4Cl)CC3)c(C)o2)cc1` was 24.1 µM. For the molecule `CC[C@H]1CN2CCC1C[C@@H]2[C@@H](O)c1ccnc2ccc(OC)cc12` (stereo partly specified), the AC50 was 2.25 µM. As for `COc1cccc(CN2CCCCN3[C@@H](CO)[C@@H](c4ccc(-c5ccccc5OC)cc4)[C@@H]3C2)c1`, the AC50 was 16.4 µM and 13.4 µM. Take `COc1ccc(-c2nc(NCCCN3CCCC(C)C3)c3ccccc3n2)cc1` (stereo unspecified): the AC50 is > 20 µM (inactive). For the molecule `O=C(Cc1ccncc1)N1CCCCN2[C@H](CO)[C@@H](c3ccc(C#Cc4ccccc4F)cc3)[C@H]2C1`, the AC50 is 18.5 µM. For the molecule `COc1ccccc1CNC(=O)CC1N=C2c3ccccc3N=C(SCc3cc(=O)n4cc(Cl)ccc4n3)N2C1=O` (stereo unspecified), the AC50 is 29.6 µM.
